The record followed here is ChEMBL document CHEMBL3991942, “Low molecular weight MYC-MAX inhibitors” (2011).

In data set [1] the target is T1, c-Myc/c-Max (Homo sapiens) (UniProt P01106+P61244). In words: Inhibition of c-Myc/Max interaction in human HL60 nuclear extracts at 100 to 200 uM after 30 mins by co-immunoprecipitation assay. It counts as protein assay.
In another data set the test system is H016.4C. In words: Cytotoxicity against rat H016.4C cells assessed as cell growth inhibition at 6 to 50 uM after 3 to 9 days by trypan blue exclusion assay. It counts as functional, cell-based.
Data set [2] addresses T1, c-Myc/c-Max (Homo sapiens). Description: Inhibition of recombinant human His6 tagged c-Myc bHLH-LZ domain (353 to 439 residues) with GGCD extension at C-terminus/recombinant human full length His6 tagged Max (151 residues) expressed in Escherichia coli assessed as reduction of heterodimer binding to HEX labeled E-box-containing DNA after 90 mins by electrophoretic mobility shift assay.

The test system of data set [3] is HL-60. Description: Effect on absolute levels of Max in human HL60 nuclear extracts at 100 to 200 uM after 30 mins by co-immunoprecipitation assay. As to conditions: hl-60, 0.5 h.
A short description of data set [4]: Cytotoxicity against rat KO-HMG cells assessed as cell growth inhibition at 6 to 50 uM after 3 to 4 days by trypan blue exclusion assay. It counts as cell-based.
Data set [5] has as its target Myc proto-oncogene protein (Rattus norvegicus) (UniProt P09416). In words: Inhibition of c-Myc in rat TGR1 cells assessed as cell growth inhibition at 6 to 50 uM after 3 to 4 days by trypan blue exclusion assay. It counts as cell-based.
The test system of data set [6] is HL-60. In words: Effect on absolute levels of c-Myc in human HL60 nuclear extracts at 100 to 200 uM after 30 mins by co-immunoprecipitation assay. As to conditions: hl-60, 0.5 h.
In data set [7] the target is Protein max (Homo sapiens) (UniProt P61244). Description: Binding affinity to recombinant human full length His6 tagged Max (151 residues) expressed in Escherichia coli M15 (pRep4) at 25 uM by fluorescence polarization assay.
In data set [8] the target is Myc proto-oncogene protein (Homo sapiens) (UniProt P01106). In words: Binding affinity to recombinant human His6 tagged c-Myc bHLH-LZ domain (353 to 439 residues) with GGCD extension at C-terminus expressed in Escherichia coli BL21 DE3 (pLysS) at 25 uM by fluorescence polarization assay.
Data set [9] has the same target. Description: Binding affinity to recombinant human His6 tagged c-Myc bHLH-LZ domain (353 to 439 residues) with GGCD extension at C-terminus expressed in Escherichia coli BL21 DE3 (pLysS) by fluorescence polarization assay. (In general: In fluorescence polarisation assays a small probe gives low polarisation when free and higher when bound to something large.)

Activity calls are given as the source filed them. The rule behind the calls is not given here.

For `C#CCN1C(=O)S/C(=C/c2ccc(CC)cc2)C1=O`, the inhibition result in data set [1] and in data set [5] was “Active” in each case. The “growth inhibition (GI)” value in the data set with H016.4C is “inactive”. Moreover, the inhibition result in data set [2] was “Dose-dependent effect”. For the same compound, the Activity result (in the data set with HL-60 [3]; in [4]; with HL-60 [6]) was “Non-Toxic” in each case.
On to `O=C1NC(=S)S/C1=C\c1ccc(Cl)cc1`, for which the inhibition result in [1] and in [5] was “Active” in each case. For the same compound, the “growth inhibition (GI)” value in the data set on H016.4C is “inactive”. In addition, the inhibition entry in data set [2] was “Dose-dependent effect”. For the same compound, the Activity entry (with HL-60 [3]; in data set [4]; with HL-60 [6]) was “Non-Toxic” each time. Further, in [7], the result was inactive. In addition, the result in [8] was Active. The K in data set [9] is 2.5 µM.
Consider `CCN(CC)c1ccc(/C=C2\SC(=S)NC2=O)cc1`, for which the result in [7] and in data set [8] was inactive.
For the compound `O=C1/C(=C/c2ccc(Cl)cc2)SC(=S)N1CN1CCCCC1`, the inhibition result in data set [1] and in [5] was “Active” in each case. The “growth inhibition (GI)” value with H016.4C is “inactive”. Moreover, the inhibition entry in data set [2] was “Dose-dependent effect”. Besides, the Activity entry (in the data set with HL-60 [3]; in data set [4]; with HL-60 [6]) was “Non-Toxic” throughout. Moreover, in data set [7], the outcome was inactive. Also, the result in data set [8] was Active. In addition, the K in data set [9] turned out to be 0.6 µM.
Consider `C=CCN1C(=O)/C(=C\c2ccc(CC)cc2)SC1=S`, for which the inhibition result in [1] and in data set [5] was “Active” throughout. In addition, in the data set on H016.4C, the “growth inhibition (GI)” value is “inactive”. In data set [2], the inhibition entry is “Dose-dependent effect”. The Activity result (in the data set with HL-60 [3]; in data set [4]; with HL-60 [6]) was “Non-Toxic” throughout. Further, the result in data set [7] was inactive. In addition, the outcome in [8] was Active. For the same compound, the K in data set [9] is 3.1 µM.
`CCc1ccc(/C=C2\SC(SC)=NC2=O)cc1`: the inhibition entry in data set [1] was “Active”. Moreover, in [2], the inhibition entry was “Dose-dependent effect”. Moreover, the Activity entry with HL-60 [3] and with HL-60 [6] was “Non-Toxic” throughout. The result in [7] was inactive. In addition, the result in [8] was Active. In addition, the K in data set [9] was determined as 4.1 µM.
With `CC(C)c1ccc(/C=C2\SC(=S)N(CN3CCCCC3)C2=O)cc1`, the inhibition entry in data set [1] and in [5] was “Active” in each case. Moreover, the “growth inhibition (GI)” value with H016.4C was “inactive”. In addition, the inhibition entry in data set [2] was “Dose-dependent effect”. Also, the Activity entry (with HL-60 [3]; in data set [4]; in the data set with HL-60 [6]) was “Non-Toxic” in each case. Also, the result in data set [7] was inactive. Further, the result in [8] was Active. Besides, the K in data set [9] came out at 1.8 µM.
In the case of `CCc1ccc(/C=C2\SC(=S)N(CN3CCCCC3)C2=O)cc1`, in data set [1], the inhibition entry was “Active”. For the same compound, in data set [2], the inhibition entry was “Dose-dependent effect”. Besides, the Activity entry with HL-60 [3] and in the data set with HL-60 [6] was “Non-Toxic” in each case. The outcome in data set [7] was inactive. The outcome in [8] was Active. Moreover, the K in [9] worked out at 5.7 µM.
As to `O=C1NC(=S)S/C1=C\c1ccc(O)c(O)c1`, the inhibition entry in data set [1] and in data set [5] was “Active” each time. Besides, the “growth inhibition (GI)” value in the data set with H016.4C is “inactive”. Moreover, the inhibition result in data set [2] is “Dose-dependent effect”. Moreover, the Activity entry (with HL-60 [3]; in [4]; in the data set on HL-60 [6]) was “Non-Toxic” in each case. Further, in data set [7], the outcome was inactive. In addition, the outcome in [8] was Active. Moreover, in data set [9], the K was determined as 8.6 µM.
Consider `CC(C)c1ccc(/C=C2\SC(=S)NC2=O)cc1`, for which the inhibition result in data set [1] was “Active”. In addition, the inhibition result in data set [2] is “Dose-dependent effect”. Besides, the Activity entry with HL-60 [3] and in the data set with HL-60 [6] was “Non-Toxic” each time. The outcome in [7] was inactive. Further, the outcome in data set [8] was Active. Further, the K in data set [9] was 1 µM.
As for `O=C1NC(=S)S/C1=C\C1CCCCC1`, the inhibition entry in [1] is “Active”. For the same compound, the inhibition entry in data set [2] was “Dose-dependent effect”. In addition, the Activity result with HL-60 [3] and in the data set with HL-60 [6] was “Non-Toxic” throughout.
Turning to `O=C1NC(=S)S/C1=C\c1ccc(O)cc1`, the outcome in data set [7] and in data set [8] was inactive.
As to `CCc1ccc(/C=C2\SC(=S)N(CCC(C)=O)C2=O)cc1`, the inhibition entry in [1] and in data set [5] was “Active” each time. Besides, the “growth inhibition (GI)” value with H016.4C is “inactive”. Further, in data set [2], the inhibition entry is “Dose-dependent effect”. Moreover, the Activity result (in the data set on HL-60 [3]; in data set [4]; in the data set with HL-60 [6]) was “Non-Toxic” in each case. In addition, in data set [7], the result was inactive. The outcome in data set [8] was Active. Besides, the K in data set [9] stood at 1.4 µM.
Consider `C/C(=C1/SC(=S)NC1=O)c1ccccc1`, for which the outcome in [7] and in data set [8] was inactive.
Consider `CCc1ccc(/C=C2\SC(=S)NC2=O)cc1`, for which the inhibition result in data set [1] and in data set [5] was “Active” in each case. Moreover, in the data set on H016.4C, the “growth inhibition (GI)” value was “inactive”. For the same compound, in [2], the inhibition result was “Dose-dependent effect”. Further, the Activity result (with HL-60 [3]; in data set [4]; with HL-60 [6]) was “Non-Toxic” throughout. Besides, in [7], the result was inactive. In data set [8], the outcome was Active. Moreover, the K in data set [9] turned out to be 2.3 µM.
